Literature values in patent publication US20240182893A1, “INHIBITION OF FGR REDUCES FIBROSIS” (UNIVERSITY OF PITTSBURGH-OF THE COMMONWEALTH SYSTEM OF …, priority 2021, published 2024).

System: fibrosis in the lung
Settings: in vivo; cited from earlier work

COC(=O)c1ccc2c(c1)NC(=O)/C2=C(\Nc1ccc(N(C)C(=O)CN2CCN(C)CC2)cc1)c1ccccc1 [nintedanib]
progression of fibrosis in the lung: slow the progression of fibrosis

Cc1ccc(=O)n(-c2ccccc2)c1 [pirfenidone]
progression of fibrosis in the lung: slow the progression of fibrosis
